Measurements published in patent publication US20090024021A1, “Methods and Systems for Using Transcranial Magnetic Stimulation and Functional Brain Mapping for Examining Cortical Sensitivity, Brain Communication, and Effects of Medication” (priority 2002, published 2009).
“Also recorded” adds a separate entry of the source.

Tested on: left prefrontal cortex
Test: Interleaved TMS/phMRI (BOLD fMRI) with TMS over prefrontal cortex
Type: in vivo, human
Settings: for Voxels, effect of LTG (between day) / Z-score, effect of LTG (between day): Prefrontal Cortex Stimulation, LTG-Placebo
Method: Study design: We performed a randomized, double-blind, crossover trial involving two visits at least one week apart (FIG. 8). […] Serum LTG levels, RMTs, and interleaved TMS/phMRI images during both motor and then prefrontal TMS were then gathered for each subject. One week later they received LTG or placebo again, followed by identical RMT and interleaved TMS/phMRI studies.
Combined TMS and MRI: Immediately following RMT determination, interleaved TMS/phMRI acquisitions were performed in a Picker EDGE 1.5 T MR scanner with actively shielded magnet and high-performance gradients (27 mT/m, 72 T/m/sec) using a typical gradient echo, echo planar imaging (EPI) fMRI sequence (tip angle=90, TR=3 sec, FOV 27.0 cm, fifteen 7 mm thick slices, 1 mm gap). TMS was delivered using a Dantec MagPro with a special nonferromagnetic TMS coil of figure-8 design with an 8-meter cable (Dantec Medical A/S, Skovlunde, Denmark) and a room set up identical to prior TMS/fMRI studies from our group. TMS pulses and the fMRI sequence were interleaved as described before^21. Each cycle, illustrated in FIG. 9, consisted of six 21-sec sub-cycles—four Test and two task (100% RMT stimulation and 120% RMT stimulation). During each sub-cycle, the scanner acquired seven sets of 15 transverse images. During the task sub-cycles the TMS was triggered 100 ms after every […] image acquisition to produce a TMS stimulation rate of 1 Hz. The entire TMS/fMRI sequence lasted 882 sec (14.7 min).
On each visit, immediately after the Motor Cortex MRI study, subjects were removed from the scanner and the TMS device was moved to position it over the left prefrontal cortex. The left prefrontal cortex stimulation site was defined as a location 5-cm rostral and in a parasagittal plane from the site of maximal APB stimulation. Subjects then reentered the scanner for the prefrontal TMS scan, which was identical to the Motor study described above except for the TMS coil location.
Individual fMRI Data Analyses: MR scans were transferred into ANALYZE format and then further processed on Sun workstations (Sun Microsystems, Palo Alto, Calif.). Scans were checked using MEDx3.3 (Sensor Systems Inc, Sterling, Va.) for movement across runs, and then were coregistered to a mean image using automatic image registration. […] After correction of motion, we used a delayed boxcar model, employed a high-pass filter to remove signal drift, cardiac and respiratory effects, and other low frequency artifacts. Then, we spatially transformed each subject's data into the Talairach Atlas (input voxel dimensions, 2.1×2.1×8 mm, to output voxel dimensions, 4×4×4 mm), smoothed (4×2 mm) the data and generated z map with the Statistical Parametric Mapping (SPM) 96 module in MEDx3.3. We assumed an uncorrected F threshold UF P>0.99 to preserve as many voxels as possible for the cluster analysis.
Group fMRI Data Analyses: All subject's unthresholded z maps were combined based on comparison of condition (TMS vs Rest), intensity (100% RMT-TMS vs 120% RMT-TMS), visit (LTG vs Placebo). The combined group z maps were thresholded using z≧3.09 (p≦0.001) and cluster statistical weight (spatial extent threshold) of p<0.05. We used either paired or unpaired t-tests in MEDx3.3 for all comparisons of interest and both areas of stimulation.
Magnitude of BOLD time course response: To compare the magnitudes of BOLD signal changes, two types of data were recorded. The different maps of LTG and placebo were used to make a mask of left motor cortex (82 voxels) and a mask of left hippocampus (19 voxels) (FIGS. 11A and 11B bottom panels). The masks used to define location were taken as an index of relative peak intensity above noise. According to the masks' Talairach coordinates, the mean signal intensity of the highest six contiguous voxels (two in each slice) in each subject was extracted from motor cortex or hippocampus with SPM plotting in MEDx.

Nc1nnc(-c2cccc(Cl)c2Cl)c(N)n1 [LTG, Lamotrigine]
number of active voxels in hippocampus, compared with placebo (100% RMT minus rest over prefrontal cortex, left hippocampus, 8 subjects, Wilcoxon p=0.04): significantly more; also recorded: significantly increased | Z-score, region of activation (LTG day, within day, n = 8, 100% RMT-Rest, Left Hippocampus, Talairach −24,−8,−24): 3.53 | Z-score, region of activation (LTG day, within day, n = 8, 100% RMT-Rest, Left cingulated gyrus, Talairach −8,−8,28): 4.08 | Z-score, region of activation (LTG day, within day, n = 8, 100% RMT-Rest, Left middle frontal gyrus (BA 6), Talairach −32,4,60): 4.04 | Z-score, region of activation (LTG day, within day, n = 8, 100% RMT-Rest, Right hippocampus, Amygdala, Talairach 20,−8,−16): 3.66 | Z-score, region of activation (LTG day, within day, n = 8, 100% RMT-Rest, Right insula (BA 13), Talairach 52,−28,20): 4.26 | Z-score, region of activation (LTG day, within day, n = 8, 100% RMT-Rest, Right middle frontal gyrus, Talairach 40,48,16): 3.96 | Z-score, region of activation (LTG day, within day, n = 8, 100% RMT-Rest, Right postcentral gyrus (BA 3), Talairach 52,−16,40): 3.18 | Z-score, region of activation (LTG day, within day, n = 8, 100% RMT-Rest, Right precentral gyrus, Talairach 36,−4,28): 4.02 | Region of activation (LTG day, within day, n = 8, 120% RMT-100%): No activity | Z-score, region of activation (LTG day, within day, n = 8, 120% RMT-Rest, Left cingulate gyrus, Talairach −8,4,36): 3.98 | Z-score, region of activation (LTG day, within day, n = 8, 120% RMT-Rest, Left medial frontal gyrus (BA 6), Talairach −48,44,−4): 4.15 | Z-score, region of activation (LTG day, within day, n = 8, 120% RMT-Rest, Left postcentral gyrus (BA 2), Talairach −56,−24,36): 4.12 | Z-score, region of activation (LTG day, within day, n = 8, 120% RMT-Rest, Left superior temporal gyrus, Talairach −60,4,−4): 4.14 | Z-score, region of activation (LTG day, within day, n = 8, 120% RMT-Rest, Right precentral gyrus, Talairach 52,−8,44): 4.31 | Z-score, region of activation (LTG day, within day, n = 8, 120% RMT-Rest, Right superior temporal gyrus, Talairach 56,−12,8): 4.53 | Voxels, effect of LTG (between day) (Gyrus frontal medius, Right): 35 | Z-score, effect of LTG (between day) (Gyrus frontal medius, Right, Talairach 30,25,41, p < .01): 2.83 | Voxels, effect of LTG (between day) (Hippocampus, Left): 19 | Z-score, effect of LTG (between day) (Hippocampus, Left, Talairach −25,−11,−25, p < .05): 2.26 | Voxels, effect of LTG (between day) (Insula, Right): 57 | Z-score, effect of LTG (between day) (Insula, Right, Talairach 39,13,1, p < .01): 2.83 | Voxels, effect of LTG (between day) (Postcentral gyrus, Right): 59 | Z-score, effect of LTG (between day) (Postcentral gyrus, Right, Talairach 53,−32,40, p < .01): 2.83 | Voxels, effect of LTG (between day) (Temporal lobe, Left): 112 | Z-score, effect of LTG (between day) (Temporal lobe, Left, Talairach −43,15,−25, p < .001): 3.78 | brain activity in the hippocampus and the orbital frontal gyrus, compared to placebo (formal between-day analysis, 100% RMT prefrontal stimulation vs rest, 8 subjects): increased brain activity; also recorded: increases this activity | % BOLD signal change in left hippocampus, LTG vs placebo, entire time series (prefrontal TMS, 8 subjects, ANOVA F=1.12, p=0.326): failed to show significant differences | % BOLD change in left hippocampus compared with placebo, TMS phase (prefrontal TMS, time points 14-17, 8 subjects, t=−2.69, p=0.009): significantly increased
